Our source for the IC50 values is ChEMBL document CHEMBL1201861, “Genomics of Drug Sensitity in Cancer screening data, Wellcome Trust Sanger Institute”.

Common to all, as to test: cells
The subject of one test is CAS-1. It counts as functional, cell-based, Homo sapiens. To be noted: Homo sapiens, CAS-1.
In a further test the test system is MS-1. It counts as functional, cell-based. To be noted: Homo sapiens.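 Further: growth inhibition of MS-1 cells, read out by cell viability.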
The next test concerns TE-6. Type of test: functional, cell-based, Homo sapiens. To be noted: Homo sapiens, TE-6.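 Further: growth inhibition of TE-6 cells, read out with a cell viability assay.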
The subject of the next test is HC-1. Type of test: functional, cell-based. To be noted: Homo sapiens.
In another test the test system is SK-N-DZ. Type of test: functional, cell-based, Homo sapiens. To be noted: Homo sapiens, SK-N-DZ.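 Further: growth inhibition of the cancer cell line, read out through a viability assay.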
The next test has as its system GR-ST. It counts as functional, cell-based. To be noted: Homo sapiens.
The subject of another test is U-266. Type of test: functional, cell-based. To be noted: Homo sapiens.
Another test concerns MHH-NB-11. Type of test: functional, cell-based, Homo sapiens. To be noted: Homo sapiens, MHH-NB-11.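 Further: growth inhibition of human MHH-NB-11 cells, read out by a cell viability assay.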
In another test the test system is MMAC-SF. Type of test: functional, cell-based, Homo sapiens. To be noted: Homo sapiens, MMAC-SF.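 Further: growth inhibition of human MMAC-SF cells, read out with a cell viability assay.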
The next test deals with EW-13. It counts as functional, cell-based. To be noted: Homo sapiens.
The subject of another test is NCI-H1092. It counts as functional, cell-based. To be noted: Homo sapiens.
Another test deals with 697. Type of test: functional, cell-based. To be noted: Homo sapiens.
For the next test, the system named is SBC-1. It counts as functional, cell-based. To be noted: Homo sapiens.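 Further: cell viability assay measuring growth inhibition of the SBC-1 cell line, IC50 being the concentration that halves growth.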
The next test has as its system GCIY. Type of test: functional, cell-based, Homo sapiens. To be noted: Homo sapiens, GCIY.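 Further: growth inhibition of the human GCIY cell line, read out by a cell viability assay.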
The test system of another test is KP-N-YS. It counts as functional, cell-based. To be noted: Homo sapiens.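 Further: cell viability assay measuring inhibition of cell line growth.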
The test system of another test is GT3TKB. Type of test: functional, cell-based, Homo sapiens. To be noted: Homo sapiens, GT3TKB.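 Further: growth inhibition of the cell line, read out with a cell viability assay.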
A further test has as its system RS4-11. Type of test: functional, cell-based. To be noted: Homo sapiens.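 Further: growth inhibition of RS4-11 cells, read out by a cell viability assay.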
A further test concerns GB-1. It counts as functional, cell-based, Homo sapiens. To be noted: Homo sapiens, GB-1.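 Further: growth of GB-1 cells judged by a viability assay, IC50 marks the concentration inhibiting growth.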
A further test has as its system GOTO. It counts as functional, cell-based, Homo sapiens. To be noted: Homo sapiens, GOTO.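 Further: growth inhibition of GOTO cells, read out by a cell viability assay.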
A further test has as its system TE-8. It counts as functional, cell-based, Homo sapiens. To be noted: Homo sapiens, TE-8.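 Further: growth inhibition of TE-8 cells, measured with a cell viability readout.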
A further test has as its system NCI-H1299. It counts as functional, cell-based, Homo sapiens. To be noted: Homo sapiens, NCI-H1299.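 Further: growth inhibition of human NCI-H1299 cells, read out by a cell viability assay.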
Another test has as its system ES3. It counts as functional, cell-based, Homo sapiens. To be noted: Homo sapiens, ES3.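 Further: growth inhibition of ES3 cells, read out with a cell viability assay.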
The subject of another test is NCI-N87. Type of test: functional, cell-based, Homo sapiens. To be noted: Homo sapiens, NCI-N87.
The subject of another test is SCC-15. Type of test: functional, cell-based, Homo sapiens. To be noted: Homo sapiens, SCC-15.
For the next test, the system named is SW982. It counts as functional, cell-based. To be noted: Homo sapiens.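 Further: growth inhibition of SW982 cells, read out with a cell viability assay.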

Usually IC50 stands for the midpoint of a concentration-inhibition curve.

Structures are written as SMILES. A value given as a limit tells only on which side of the number the result lay.

Description for 697: SANGER: Inhibition of human 697 cell growth in a cell viability assay.
Description for EW-13: SANGER: Inhibition of human EW-13 cell growth in a cell viability assay.
Description for GB-1: SANGER: Inhibition of human GB-1 cell growth in a cell viability assay.
Description for GCIY: SANGER: Inhibition of human GCIY cell growth in a cell viability assay.
Description for GOTO: SANGER: Inhibition of human GOTO cell growth in a cell viability assay.
Description for GR-ST: SANGER: Inhibition of human GR-ST cell growth in a cell viability assay.
Description for GT3TKB: SANGER: Inhibition of human GT3TKB cell growth in a cell viability assay.
Description for HC-1: SANGER: Inhibition of human HC-1 cell growth in a cell viability assay.
Description for KP-N-YS: SANGER: Inhibition of human KP-N-YS cell growth in a cell viability assay.
Description for MHH-NB-11: SANGER: Inhibition of human MHH-NB-11 cell growth in a cell viability assay.
Description for MMAC-SF: SANGER: Inhibition of human MMAC-SF cell growth in a cell viability assay.
Description for MS-1: SANGER: Inhibition of human MS-1 cell growth in a cell viability assay.
Description for NCI-H1092: SANGER: Inhibition of human NCI-H1092 cell growth in a cell viability assay.
Description for NCI-H1299: SANGER: Inhibition of human NCI-H1299 cell growth in a cell viability assay.
Description for NCI-N87: SANGER: Inhibition of human NCI-N87 cell growth in a cell viability assay.
Description for RS4-11: SANGER: Inhibition of human RS4-11 cell growth in a cell viability assay.
Description for SBC-1: SANGER: Inhibition of human SBC-1 cell growth in a cell viability assay.
Description for SCC-15: SANGER: Inhibition of human SCC-15 cell growth in a cell viability assay.
Description for SK-N-DZ: SANGER: Inhibition of human SK-N-DZ cell growth in a cell viability assay.
Description for SW982: SANGER: Inhibition of human SW982 cell growth in a cell viability assay.
Description for TE-6: SANGER: Inhibition of human TE-6 cell growth in a cell viability assay.
Description for TE-8: SANGER: Inhibition of human TE-8 cell growth in a cell viability assay.
Description for U-266: SANGER: Inhibition of human U-266 cell growth in a cell viability assay.

Consider `C=C1C(=O)O[C@@H]2C3O[C@]3(C)CC/C=C(\C)CC[C@@H]12` (stereo partly drawn), for which the IC50 is > 5000 nM with CAS-1; > 5000 nM in the test with MS-1; > 5000 nM with TE-6; > 5000 nM in the test on HC-1; 4650 nM in the test with SK-N-DZ; > 5000 nM in the test on GR-ST. The IC50 was > 5000 nM in the test on U-266; > 5000 nM in the test with MHH-NB-11; > 5000 nM in the test with MMAC-SF; > 5000 nM with EW-13; > 5000 nM in the test on NCI-H1092; 465 nM with 697. In addition, the half-inhibitory concentration (IC50) with SBC-1, in the test on GCIY, in the test on KP-N-YS, with GT3TKB, with RS4-11 and in the test with GB-1 was > 5000 nM in each case. Moreover, the IC50 with GOTO, in the test on TE-8, with NCI-H1299, in the test with ES3 and with NCI-N87 was > 5000 nM in each case.
`CC1=C2C[C@H]3[C@@H](CC=C4C[C@@H](O)CC[C@@]43C)[C@@H]2CC[C@]12O[C@@H]1C[C@H](C)CN[C@H]1[C@H]2C` [CYCLOPAMINE]: the half-maximal inhibitory concentration (IC50) in the test on CAS-1, in the test on MS-1, in the test on TE-6, in the test with HC-1, in the test on SK-N-DZ and with GR-ST was > 16000 nM each time. Also, the concentration for half-maximal inhibition (IC50) in the test on U-266, with MHH-NB-11, in the test on MMAC-SF, in the test with EW-13, in the test on NCI-H1092 and with 697 was > 16000 nM in each case. The half-inhibitory concentration (IC50) in the test on SCC-15, in the test with SBC-1, in the test on GCIY, in the test with KP-N-YS, in the test on GT3TKB and in the test on RS4-11 was > 16000 nM throughout. In addition, the IC50 with GB-1, in the test on GOTO, in the test with TE-8 and with ES3 was > 16000 nM in each case.
With `CS(=O)(=O)CCNCc1ccc(-c2ccc3ncnc(Nc4ccc(OCc5cccc(F)c5)c(Cl)c4)c3c2)o1` [LAPATINIB], the IC50 with CAS-1 was > 2000 nM; with MS-1, > 2000 nM; with TE-6 it was 1550 nM; in the test on HC-1 it was > 2000 nM; in the test with SK-N-DZ it was > 2000 nM; in the test on GR-ST, > 2000 nM. Moreover, the IC50 in the test on U-266, in the test with MHH-NB-11, in the test on MMAC-SF, with EW-13, in the test on NCI-H1092 and in the test with 697 was > 2000 nM throughout. For the same compound, the IC50 in the test on SCC-15, with SBC-1, in the test on GCIY, in the test on KP-N-YS, in the test on GT3TKB and with RS4-11 was > 2000 nM throughout. Besides, the concentration for half-maximal inhibition (IC50) in the test with GB-1, with GOTO, with TE-8 and in the test on ES3 was > 2000 nM each time.
With `CCc1nc(N)nc(N)c1-c1ccc(Cl)cc1` [PYRIMETHAMINE], the IC50 in the test on CAS-1 is > 20000 nM; with MS-1, > 20000 nM; in the test with TE-6, > 20000 nM; in the test with HC-1 it was 5650 nM; in the test with SK-N-DZ it was > 20000 nM; in the test with GR-ST, 709 nM. The IC50 was 5130 nM with U-266; 13700 nM with MHH-NB-11; > 20000 nM with MMAC-SF; > 20000 nM with EW-13; > 20000 nM in the test on NCI-H1092; 3600 nM in the test with 697. Moreover, the concentration for half-maximal inhibition (IC50) with SBC-1, in the test on GCIY, in the test on KP-N-YS, in the test with GT3TKB, in the test with RS4-11 and with GB-1 was > 20000 nM each time. Also, the IC50 with GOTO, in the test with TE-8, with NCI-H1299 and with ES3 was > 20000 nM in each case.
In the case of `O=C(/C=C/c1ccccc1)NC(NC(=S)Nc1cccc2cccnc12)C(Cl)(Cl)Cl` (stereo not drawn) [SALUBRINAL], the IC50 was > 16000 nM in the test on CAS-1; > 16000 nM in the test on MS-1; > 16000 nM with TE-6; 11200 nM with HC-1; > 16000 nM in the test on SK-N-DZ; > 16000 nM in the test with GR-ST. Moreover, the 50% inhibitory concentration (IC50) in the test with U-266 is > 16000 nM; in the test with MHH-NB-11, > 16000 nM; with MMAC-SF, > 16000 nM; with EW-13, > 16000 nM; in the test with NCI-H1092, > 16000 nM; in the test with 697, 3990 nM. For the same compound, the half-inhibitory concentration (IC50) with SCC-15, in the test with SBC-1, in the test with GCIY, with KP-N-YS, in the test with GT3TKB and in the test on RS4-11 was > 16000 nM throughout. Moreover, the concentration for half-maximal inhibition (IC50) with GB-1, with GOTO, with TE-8 and with ES3 was > 16000 nM each time.
Take `CN1CCN(CCOc2cc(OC3CCOCC3)c3c(Nc4c(Cl)ccc5c4OCO5)ncnc3c2)CC1` [SARACATINIB]: the IC50 with CAS-1 was > 2000 nM; in the test on MS-1, > 2000 nM; in the test with TE-6, > 2000 nM; in the test on HC-1 it was > 2000 nM; with SK-N-DZ, 1850 nM; in the test with GR-ST, > 2000 nM. Further, the IC50 in the test with U-266, in the test on MHH-NB-11, in the test with MMAC-SF, in the test on EW-13, in the test with NCI-H1092 and with 697 was > 2000 nM throughout. For the same compound, the IC50 in the test on SCC-15, in the test with SBC-1, with GCIY, in the test on KP-N-YS, in the test with GT3TKB and with RS4-11 was > 2000 nM throughout. Further, the IC50 in the test on GB-1 was 1800 nM; in the test on GOTO it was > 2000 nM; in the test on TE-8, 873 nM; in the test on SW982, 1920 nM; in the test on NCI-H1299, > 2000 nM; in the test with ES3 it was > 2000 nM.
On to `CNC(=O)c1cc(Oc2ccc(NC(=O)Nc3ccc(Cl)c(C(F)(F)F)c3)cc2)ccn1` [SORAFENIB], for which the IC50 in the test on CAS-1, with MS-1, in the test on TE-6, in the test on HC-1, in the test on SK-N-DZ and in the test on GR-ST was > 4000 nM throughout. For the same compound, the half-inhibitory concentration (IC50) in the test with U-266, with MHH-NB-11, in the test on MMAC-SF, with EW-13, in the test with NCI-H1092 and with 697 was > 4000 nM throughout. Besides, the half-inhibitory concentration (IC50) in the test on SCC-15, in the test with SBC-1, in the test on GCIY, in the test with KP-N-YS, in the test with GT3TKB and in the test on GB-1 was > 4000 nM throughout. For the same compound, the IC50 with GOTO, with TE-8, in the test on NCI-H1299 and in the test on ES3 was > 4000 nM each time.
With `CCC(=O)N1CCN(c2ccc(-n3c(=O)ccc4cnc5ccc(-c6cnc7ccccc7c6)cc5c43)cc2C(F)(F)F)CC1` [TORIN1], the concentration for half-maximal inhibition (IC50) in the test with CAS-1 was > 1200 nM; in the test on MS-1, 402 nM; in the test with TE-6, 681 nM; in the test on HC-1, 58.3 nM; with SK-N-DZ it was 147 nM; in the test on GR-ST, 26.5 nM. Moreover, the concentration for half-maximal inhibition (IC50) with U-266 is 132 nM; in the test on MHH-NB-11, > 1200 nM; in the test on MMAC-SF, 26.3 nM; in the test with EW-13 it was > 1200 nM; in the test on NCI-H1092 it was > 1200 nM; in the test on 697 it was 6.34 nM. Further, the IC50 in the test on SCC-15 is > 1200 nM; with SBC-1, 111 nM; with GCIY it was 10.1 nM; in the test with KP-N-YS, > 1200 nM; in the test on GT3TKB it was 109 nM; in the test with RS4-11, 59.4 nM. In addition, the IC50 in the test with GB-1 is 15.5 nM; in the test on GOTO, 207 nM; in the test on TE-8 it was 90.2 nM; with SW982 it was 42.5 nM; with ES3, > 1200 nM.
With `Cc1cc(Nc2cc(N3CCN(C)CC3)nc(Sc3ccc(NC(=O)C4CC4)cc3)n2)n[nH]1` [TOZASERTIB], the 50% inhibitory concentration (IC50) in the test with CAS-1 is > 2000 nM; in the test on MS-1 it was > 2000 nM; with TE-6 it was > 2000 nM; in the test on HC-1, > 2000 nM; with SK-N-DZ, 962 nM; in the test on GR-ST, > 2000 nM. For the same compound, the IC50 in the test with U-266 was > 2000 nM; in the test on MHH-NB-11 it was > 2000 nM; in the test on MMAC-SF, > 2000 nM; with EW-13, > 2000 nM; with NCI-H1092 it was > 2000 nM; with 697, 24.7 nM. Also, the IC50 in the test with SCC-15 was > 2000 nM; with SBC-1, 1130 nM; in the test with GCIY, > 2000 nM; with KP-N-YS it was 544 nM; in the test with GT3TKB, 1280 nM; in the test with RS4-11, 4.04 nM. Further, the IC50 with GB-1 is > 2000 nM; in the test on GOTO it was > 2000 nM; in the test on TE-8 it was 1800 nM; in the test on SW982, 214 nM; in the test with ES3, > 2000 nM.
